According to patent publication US20100056526A1, “HETEROMONOCYCLIC COMPOUND AND USE THEREOF” (Takeda Pharmaceutical Company Limited, priority 2006, published 2010):

Assays:
human AT1 receptor = target: T1, human AT1 receptor (Homo sapiens, UniProt P30556); experiment: Binding assay using human AT1 receptor-expressing CHO-K1 cell membrane fraction ([125I]-angiotensin II); conditions: 22.5 pM [125I]-angiotensin II, 9 μg AT1 membrane, 1 hr room temperature; read-out: AT1 receptor binding inhibitory action (IC50 (nM))
T1 construct: expressed in transfected cells; host or cells: CHO-K1
T1 sequence (P30556 1-359): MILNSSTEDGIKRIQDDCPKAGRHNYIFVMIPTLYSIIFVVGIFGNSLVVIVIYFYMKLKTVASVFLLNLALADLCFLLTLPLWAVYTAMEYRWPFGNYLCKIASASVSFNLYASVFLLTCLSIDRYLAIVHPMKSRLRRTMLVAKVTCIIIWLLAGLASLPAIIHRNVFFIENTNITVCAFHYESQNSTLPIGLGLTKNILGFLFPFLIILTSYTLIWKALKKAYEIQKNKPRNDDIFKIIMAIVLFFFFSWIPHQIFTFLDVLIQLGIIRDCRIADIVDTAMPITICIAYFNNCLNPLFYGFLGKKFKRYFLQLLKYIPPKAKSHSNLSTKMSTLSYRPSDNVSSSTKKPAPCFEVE
Protocol: The membrane fraction for human AT1 receptor binding assay was prepared as follows. CHO-K1 cell capable of stable expression of human AT1 receptor was cultured, recovered, suspended in homogenize buffer (10 mM NaHCO3 (pH 7.4), 5 mM EDTA, 1×Complete EDTA free) [manufactured by Roche, Switzerland], and homogenized. The homogenate was centrifuged at low-speed (900×g, 10 min, 4° C.), and the supernatant was recovered and ultracentrifuged (90,000×g, 1 hr, 4° C.). The supernatant was discarded, and the pellets were resuspended in resuspension buffer (50 mM Tris (pH 7.4), 1 mM EDTA, 1×Complete EDTA free).
The binding assay was performed in the presence of 22.5 pM [^125I]-angiotensin II [manufactured by PerkinElmer, USA], 9 μg of AT1 membrane and test compound in 100 μL (total reaction volume) of reaction buffer (50 mM Tris (pH 7.4), 10 mM MgCl2 supplemented or not supplemented with 0.3 mg/mL fatty acid-free bovine serum albumin [manufactured by Wako Pure Chemical Industries, Ltd., Japan]). The reaction mixture was incubated in 96 well polypropylene plate for 1 hr at room temperature, and the reaction was quenched by rapid filtration (96 well cell harvester) through a GF/C filter treated with wash buffer (50 mM Tris (pH 7.4)). Subsequently, the filter was washed 5 times with 0.3 mL of ice-cooled wash buffer. The filter was air-dried, and [^125I]-angiotensin II binding radioactivity was assayed with Top Count scintillation counter. Total binding was measured in the presence of 1% DMSO and nonspecific binding was measured in the presence of 1 μM CV-11974. The binding data was analyzed by GraphPad Prism program and the IC50 value (compound concentration showing 50% of the maximum value of inhibition percent) of the test compound was calculated.

PPARγ = target: T2, PPARγ (Homo sapiens, UniProt P37231); experiment: Evaluation of PPARγ activating action (luciferase reporter in PPARγ:RXRα:4ERPP/CHO-K1 cells); format: cell-based; conditions: CHO-K1, 24 h; test compound 10^−6 M; luciferase activity relative to control compound X (1 μM) = 100%, non-administration group = 0%; read-out: PPARγ activating action (activation % (10^−6 M))
T2 construct: expressed in transfected cells; host or cells: CHO-K1
T2 sequence (P37231 1-477 isoform P37231-2): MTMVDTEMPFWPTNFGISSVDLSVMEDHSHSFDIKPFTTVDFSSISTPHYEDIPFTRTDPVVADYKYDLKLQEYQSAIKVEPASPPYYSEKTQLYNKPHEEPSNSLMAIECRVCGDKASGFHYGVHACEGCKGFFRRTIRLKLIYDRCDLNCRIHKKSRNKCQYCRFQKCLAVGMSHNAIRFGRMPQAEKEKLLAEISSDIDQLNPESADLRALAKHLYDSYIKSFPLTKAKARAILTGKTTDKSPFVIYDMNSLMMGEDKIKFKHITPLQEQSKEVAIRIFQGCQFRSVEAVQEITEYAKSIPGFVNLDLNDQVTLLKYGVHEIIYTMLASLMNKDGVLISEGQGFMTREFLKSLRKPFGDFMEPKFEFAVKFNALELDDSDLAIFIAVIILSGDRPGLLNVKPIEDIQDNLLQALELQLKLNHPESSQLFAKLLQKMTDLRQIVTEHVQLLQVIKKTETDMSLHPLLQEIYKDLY
T2 sequence (P19793 1-462 partner): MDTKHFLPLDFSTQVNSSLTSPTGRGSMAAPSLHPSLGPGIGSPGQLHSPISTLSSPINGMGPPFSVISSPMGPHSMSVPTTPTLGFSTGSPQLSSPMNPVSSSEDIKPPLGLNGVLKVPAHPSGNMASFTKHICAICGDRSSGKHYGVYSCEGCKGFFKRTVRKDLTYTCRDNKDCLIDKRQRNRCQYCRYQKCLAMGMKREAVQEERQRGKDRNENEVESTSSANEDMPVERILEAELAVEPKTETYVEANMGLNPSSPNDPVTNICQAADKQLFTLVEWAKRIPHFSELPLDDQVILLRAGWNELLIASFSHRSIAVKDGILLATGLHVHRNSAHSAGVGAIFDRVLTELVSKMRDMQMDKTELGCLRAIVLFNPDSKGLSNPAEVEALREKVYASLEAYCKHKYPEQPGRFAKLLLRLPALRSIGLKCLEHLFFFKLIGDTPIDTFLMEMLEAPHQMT
Protocol: PPARγ:RXRα:4ERPP/CHO-K1 cells obtained in the following Reference Example 5 were cultured in F12 medium [manufactured by INVITROGEN, USA] containing 10% fetal bovine serum [manufactured by MOREGATE, Australia], seeded in a 96-well half area white plate [manufactured by Corning Coster Corporation, USA] at the density of 5×10^3 cells/well and cultured in a CO2 gas incubator at 37° C. overnight.
Then the medium was removed from the 96-well half area white plate, 45 μl of Ham's F12 medium containing 0.1% fatty acid-free bovine serum albumin (BSA) and 5 μl of test compound were added, and the cells were cultured in a CO2 gas incubator at 37° C. for 1 day. The medium was removed and 20 μl of PicaGene 7.5 [manufactured by TOYO INK MFG. CO., LTD.,.Japan] diluted 2-fold with HBSS (HANKS' BALANCED SALT SOLUTION) [manufactured by BIO WHITTAKER, USA] was added. After stirring, the luciferase activity was determined using 1420 ARVO Multilabel Counter [manufactured by PerkinElmer, USA].
The percent (%) was calculated from the luciferase activity of each test compound when the luciferase activity of the control compound (compound X: 5-[3-(4-{[2-(2-furyl)-5-methyl-1,3-oxazol-4-yl]methoxy}-3-methoxyphenyl)propyl]-1,3-oxazolidine-2,4-dione) (1 μM) was 100% and that of the test compound non-administration group was 0%.
A CHO-K1 cell cultured in a 150 cm^2 cell culture flask [manufactured by Corning Costar Corporation, USA] containing Ham's F12 medium [manufactured by INVITROGEN, USA] supplemented with 10% fetal bovine serum [manufactured by INVITROGEN, USA] was scraped by treating with 0.5 g/L trypsin-0.2 g/L EDTA (ethylenediaminetetraacetic acid) [manufactured by Life Technologies, Inc., USA], and then the cell was washed with PBS (Phosphate-buffered saline) [manufactured by INVITROGEN, USA], centrifuged (1000 rpm, 5 minutes) and suspended in PBS. Subsequently, DNA was introduced into the cell under the conditions shown below using GENE PULSER [manufactured by Bio-Rad Laboratories, USA].
Namely, to a cuvette having a 0.4 cm gap were added 8×10^6 cells and 10 μg of plasmid pVgRXR2-hPPARγ obtained in Reference Example 4 and 10 μg of reporter plasmid pGL3-4ERPP-TK neo obtained in Reference Example 3, which was subjected to electroporation at the voltage of 0.25 kV under the capacitance of 960 μF. Subsequently, the cell was transferred into a F12 medium containing 10% fetal bovine serum and cultured for 24 hours, and then the cell was scraped again and centrifuged, and then suspended in Ham's F12 medium containing 10% fetal bovine serum supplemented with 500 μg/ml of Geneticin [manufactured by INVITROGEN, USA] and 250 μg/ml of Zeocin [manufactured by INVITROGEN, USA]. The obtained suspension was diluted to the density of 10^4 cells/ml and inoculated in a 96-well plate [manufactured by Corning Costar Corporation, USA], which was cultured in a CO2 gas incubator at 37° C., whereby obtaining a Geneticin- and Zeocin-resistant transformant.
Subsequently, after the transformant cell line thus obtained was cultured in a 24-well plate [manufactured by Corning Costar Corporation, USA], a cell line in which the luciferase was expressed and induced, i.e., PPARγ:RXRα:4ERPP/CHO-K1 cell was selected by the addition of 10 μM pioglitazone hydrochloride.

Structure (SMILES)	IC50 (human AT1 receptor) [nM]	activation at 1 µM (PPARγ) [%]
CCCc1nc(CC)n(-c2ccc(OC3CCCC3=O)cc2)c(=O)c1Cc1ccc(-c2ccccc2-c2noc(=O)[nH]2)cc1 (stereo not drawn) [Example 382, 2-ethyl-3-{4-[(2-oxocyclopentyl)oxy]phenyl}-5-{[2′-(5-oxo-4,5-dihydro-1,2,4-oxadiazol-3-yl)biphenyl-4-yl]methyl}-6-propylpyrimidin-4(3H)-one]	1.2	27.2
CCCc1nc(C)n(-c2ccc3c(c2)C=CC(C)(C)O3)c(=O)c1Cc1ccc(-c2ccccc2-c2noc(=O)[nH]2)cc1 [Example 142, 3-(2,2-dimethyl-2H-chromen-6-yl)-2-methyl-5-{[2′-(5-oxo-4,5-dihydro-1,2,4-oxadiazol-3-yl)biphenyl-4-yl]methyl}-6-propylpyrimidin-4(3H)-one]	1.7	32.8
CCCc1nc(C)n(CC2CCCCO2)c(=O)c1Cc1ccc(-c2ccccc2-c2noc(=O)[nH]2)cc1 (stereo not drawn) [Example 81, 2-methyl-5-{[2′-(5-oxo-4,5-dihydro-1,2,4-oxadiazol-3-yl)biphenyl-4-yl]methyl}-6-propyl-3-(tetrahydro-2H-pyran-2-ylmethyl)pyrimidin-4(3H)-one]	1.6	62.9
CCCCc1nc(CF)n(Cc2ccccc2)c(=O)c1Cc1ccc(-c2ccccc2-c2noc(=O)[nH]2)cc1 [Example 103, 3-benzyl-6-butyl-2-(fluoromethyl)-5-{[2′-(5-oxo-4,5-dihydro-1,2,4-oxadiazol-3-yl)biphenyl-4-yl]methyl}pyrimidin-4(3H)-one]	1.5	50.2
CCCOc1ccc(-n2c(C)nc(CCC)c(Cc3ccc(-c4ccccc4-c4noc(=O)[nH]4)cc3)c2=O)cc1 [Example 249, 2-methyl-5-{[2′-(5-oxo-4,5-dihydro-1,2,4-oxadiazol-3-yl)biphenyl-4-yl]methyl}-3-(4-propoxyphenyl)-6-propylpyrimidin-4(3H)-one]	1.6	30.5
CCCc1nc(CC)n(-c2cccc(C(C)(C)O)c2)c(=O)c1Cc1ccc(-c2ccccc2-c2noc(=O)[nH]2)cc1 [Example 365, 2-ethyl-3-[3-(1-hydroxy-1-methylethyl)phenyl]-5-{[2′-(5-oxo-4,5-dihydro-1,2,4-oxadiazol-3-yl)biphenyl-4-yl]methyl}-6-propylpyrimidin-4(3H)-one]	1.8	25.3
CCCCc1nc(C2CC2)n(-c2ccc3c(c2)CCO3)c(=O)c1Cc1ccc(-c2ccccc2-c2noc(=O)[nH]2)cc1 [Example 112, 6-butyl-2-cyclopropyl-3-(2,3-dihydro-1-benzofuran-5-yl)-5-{[2′-(5-oxo-4,5-dihydro-1,2,4-oxadiazol-3-yl)biphenyl-4-yl]methyl}pyrimidin-4(3H)-one]	1.7	52.1
CCCCc1nc(C)n(C(C)c2ccccc2)c(=O)c1Cc1ccc(-c2ccccc2-c2noc(=O)[nH]2)cc1 (stereo not drawn) [Example 67, 6-butyl-2-methyl-5-{[2′-(5-oxo-4,5-dihydro-1,2,4-oxadiazol-3-yl)biphenyl-4-yl]methyl}-3-(1-phenylethyl)pyrimidin-4(3H)-one]	2	49.4
CCCc1nc(CC)c(Oc2cc(F)ccc2F)c(=O)n1Cc1ccc(-c2ccccc2-c2noc(=O)[nH]2)cc1 [Example 484, 5-(2,5-difluorophenoxy)-6-ethyl-3-{[2′-(5-oxo-4,5-dihydro-1,2,4-oxadiazol-3-yl)biphenyl-4-yl]methyl}-2-propylpyrimidin-4(3H)-one]	2.3	19.4
CCCCc1nc(C)n(-c2cccc(C(C)(C)O)c2)c(=O)c1Cc1ccc(-c2ccccc2-c2noc(=O)[nH]2)cc1 [Example 217, 6-butyl-3-[3-(1-hydroxy-1-methylethyl)phenyl]-2-methyl-5-{[2′-(5-oxo-4,5-dihydro-1,2,4-oxadiazol-3-yl)biphenyl-4-yl]methyl}pyrimidin-4(3H)-one]	1.1	26.8
CCCc1nc(C(F)F)n(-c2ccc(OC)cc2)c(=O)c1Cc1ccc(-c2ccccc2-c2noc(=O)[nH]2)cc1 [Example 410]	2.1	
